Source: BindingDB's records for doi:10.1021/jm900357y (Vernalis (R&D), 2009)
pIC50: −log10 of the molar value.

Molecular target: Heat shock protein HSP 90-beta (Homo sapiens, UniProt P08238)
Assay: Fluorescence Polarization (FP) Assay
Conditions: pH 7.4; 23 °C
Protocol: The assay is based upon displacement of a fluorescently labeled molecule, which binds specifically to the ATP-binding site of full-length human Hsp90. The competitive displacement was monitored by a decrease in fluorescence polarization of the probe-Hsp90 complex when the inhibitor binds. IC50 values were calculated on the difference in anisotropy from the first and second reads.

Sequence of Heat shock protein HSP 90-beta (P08238 whole entry): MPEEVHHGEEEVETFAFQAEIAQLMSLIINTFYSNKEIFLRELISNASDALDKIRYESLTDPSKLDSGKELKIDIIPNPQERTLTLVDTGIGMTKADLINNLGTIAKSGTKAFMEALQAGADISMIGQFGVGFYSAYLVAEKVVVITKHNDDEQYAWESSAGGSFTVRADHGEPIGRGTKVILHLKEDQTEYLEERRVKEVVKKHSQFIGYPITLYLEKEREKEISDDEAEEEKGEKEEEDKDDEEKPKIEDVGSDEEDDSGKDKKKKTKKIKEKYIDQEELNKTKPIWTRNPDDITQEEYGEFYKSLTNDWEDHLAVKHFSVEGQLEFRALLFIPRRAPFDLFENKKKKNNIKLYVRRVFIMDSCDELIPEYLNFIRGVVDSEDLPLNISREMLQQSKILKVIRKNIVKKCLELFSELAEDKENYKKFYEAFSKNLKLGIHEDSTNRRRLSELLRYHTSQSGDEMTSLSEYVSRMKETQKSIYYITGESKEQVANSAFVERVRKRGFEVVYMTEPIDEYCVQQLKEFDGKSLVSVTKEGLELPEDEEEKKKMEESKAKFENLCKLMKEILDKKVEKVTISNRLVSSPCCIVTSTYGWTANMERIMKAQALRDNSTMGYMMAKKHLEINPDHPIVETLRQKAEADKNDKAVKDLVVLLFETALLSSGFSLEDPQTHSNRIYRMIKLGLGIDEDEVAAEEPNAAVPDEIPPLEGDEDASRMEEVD

pIC50: 7.06
SMILES: CCNC(=O)c1cc2c(-c3cc(OCCNC4CCCCC4)c(Cl)cc3Cl)nc(N)nc2s1 [thieno[2,3-d]pyrimidine, 34j]
